The test system of the test is Male NMRI (SPF) mice. Nature of the test: iron utilization in mouse model (low-iron diet). Particulars: iron-deficient male NMRI mice; stomach tube, 2 mg iron/kg body weight/day, days 1-5 and 8-12; utilization on day 15 calculated from hemoglobin and body weight increase. The test is classed as in vivo. The method, then: The excellent Fe utilizations that can be accomplished through the Fe complexes according to the invention were measured by means of the following mouse model. Male NMRI (SPF) mice (approximately 3 weeks old) were fed a low-iron diet (approx. 5 ppm iron) for approximately 3 weeks. The iron complexes were then administered to them by means of a stomach tube (2 mg iron/kg body weight/day) for 2 times 5 days, with an interruption of 2 days (days 1-5 and 8-12). Utilization on day 15 was calculated from the hemoglobin increase and the body weight increase in accordance with the formula […] Control group, utilized from food, (mg Fe)
As for “Tris-(4,5,6-trimethylpyrimidine-2-ol-1-oxide)-iron(III) complex [Example 6]”, the “Utilization n 15 d (abs. %)” value is recorded as 70 abs. %. The figure for “Tris-(4,6-diethylpyrimidine-2-ol-1-oxide)-iron(III) complex [Example 4]” is 76 abs. %; for “Tris-(4,6-dimethylpyrimidine-2-ol-1-oxide)-iron(III) complex [Example 3]” it is 74 abs. %.

Consider “Tris-(4-ethylpyrimidine-2-ol-1-oxide)-iron(III) complex [Example 8]”, for which the “Utilization n 15 d (abs. %)” value was 82 abs. %. The figure for “Tris-(4-methyl-5,6,7,8-tetrahydrochinazoline-2-ol-3-oxide)-iron(III) complex [Example 11]” is 74 abs. %; for “Tris-(4-methyl-6,7-dihydro-5H-cyclopenta[d]pyrimidin-2-ol-1-oxide)-iron(III) complex [Example 10]” it is 70 abs. %. Regarding “Tris-(4-methylpyrimidine-2-ol-oxide)-iron(III) complex [Example 2]”, the “Utilization n 15 d (abs. %)” value was 80 abs. %.

On to “Tris-(4-propane-2-yl)pyrimidine-2-ol-1-oxide)-iron(III) complex [Example 12]”, for which the “Utilization n 15 d (abs. %)” value is 55 abs. %. The figure for “Tris-(5,6-dimethylpyrimidine-2-ol 1-oxide)-iron(III) complex [Example 16]” is 57 abs. %. The result for “Tris-(5-chloro-4,6-dimethylpyrimidine-2-ol-1-oxide)-iron(III) complex [Example 7]” reads 64 abs. %; that for “Tris-(6-ethyl-4-methylpyrimidin-2-ol-1-oxide)-iron(III) complex [Example 9]”, 69 abs. %; that for “Tris-(pyrimidine-2-ol-1-oxide)-iron(III) complex [Example 1]”, 89 abs. %.
